pIC50, pKi: −log10 of the molar value.
How the values were obtained:
Dipeptidyl peptidase 4 [1] = target: T1, Dipeptidyl peptidase 4 (Homo sapiens, UniProt P27487); experiment: Inhibition of human placental DPP4
Dipeptidyl peptidase 4 [2] = target: T1, Dipeptidyl peptidase 4; experiment: Inhibition of human placental DPP4 at pH 2
Dipeptidyl peptidase 4 [3] = target: T1, Dipeptidyl peptidase 4; experiment: Inhibition of human placental DPP4 at pH 8

T1 sequence (P27487 whole entry): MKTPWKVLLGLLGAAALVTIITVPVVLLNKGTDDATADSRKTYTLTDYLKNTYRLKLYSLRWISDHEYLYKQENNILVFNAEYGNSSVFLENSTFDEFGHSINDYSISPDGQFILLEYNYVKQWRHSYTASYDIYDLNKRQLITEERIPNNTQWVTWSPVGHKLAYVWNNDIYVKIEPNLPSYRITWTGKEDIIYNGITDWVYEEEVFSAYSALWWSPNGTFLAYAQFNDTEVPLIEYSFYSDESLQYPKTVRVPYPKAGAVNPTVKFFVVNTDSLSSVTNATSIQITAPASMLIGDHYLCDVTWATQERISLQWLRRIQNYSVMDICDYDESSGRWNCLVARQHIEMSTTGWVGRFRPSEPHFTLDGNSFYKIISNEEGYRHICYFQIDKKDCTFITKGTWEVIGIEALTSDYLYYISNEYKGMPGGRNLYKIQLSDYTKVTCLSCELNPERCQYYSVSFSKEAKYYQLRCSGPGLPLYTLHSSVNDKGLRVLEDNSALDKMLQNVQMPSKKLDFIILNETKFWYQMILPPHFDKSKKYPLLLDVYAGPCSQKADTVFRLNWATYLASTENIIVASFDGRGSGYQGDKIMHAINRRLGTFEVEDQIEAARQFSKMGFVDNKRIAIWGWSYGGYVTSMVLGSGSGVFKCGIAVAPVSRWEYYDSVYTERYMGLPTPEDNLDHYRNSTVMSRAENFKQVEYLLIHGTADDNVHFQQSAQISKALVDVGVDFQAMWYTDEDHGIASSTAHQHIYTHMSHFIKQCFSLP

**Q.** Which results are given for `C[C@@H](B(O)O)N1CC[C@@H](N)C1=O`?
**A.** pKi (Dipeptidyl peptidase 4 [1]): 8.64; pIC50 (Dipeptidyl peptidase 4 [2]): 8.28; pIC50 (Dipeptidyl peptidase 4 [3]): 8.38

**Q.** `C[C@@H](B(O)O)N1CC[C@H](N)C1=O` was tested. Which pKi (Dipeptidyl peptidase 4 [1]) did it give?
**A.** 5.96

**Q.** And the pIC50 (Dipeptidyl peptidase 4 [2])?
**A.** 6.32

**Q.** What about the pIC50 (Dipeptidyl peptidase 4 [3]) of the same molecule?
**A.** 6.34

— ChEMBL document CHEMBL1139886, “Synthesis and characterization of constrained peptidomimetic dipeptidyl peptidase IV inhibitors: amino-lactam boroalanines” (J Med Chem, 2007)
